Measured values as given in ChEMBL document CHEMBL5608215, “Development of amphipathic derivatives of thymol and carvacrol as potent broad-spectrum antibacterial agents” (Eur J Med Chem, 2024).
The source made the active and inactive calls. The rule behind the calls is not given here.

Assays:
Escherichia coli [1] = assay: Antibacterial activity against Escherichia coli ATCC25922 in plasma pretreated plasma with compound for 6 hrs followed by bacterial infection into plasma; format: functional, organism-based
[2] = Toxicity in KM mouse assessed as damage in kidney upto 40 mg/kg, ip measured for 24 hrs by H and E staining based analysis; format: organism-based; conditions: in vivo
Pseudomonas aeruginosa [3] = assay: Antibacterial activity against Pseudomonas aeruginosa ATCC27853 by CLSI based serial dilution method; format: functional
[4] = Toxicity in KM mouse assessed as histopathological abnormality in lung upto 40 mg/kg, ip measured for 24 hrs by H and E staining based analysis; format: organism-based; conditions: in vivo
Staphylococcus aureus [5] = assay: Antibacterial activity against Staphylococcus aureus ATCC29213 infected in mouse model assessed as bacterial load reduction in abscesses at 10 mg/kg, sc measured after 24 hrs relative to control; format: functional; design: scale not given: the % may be the effect or the level left
[6] = Toxicity in KM mouse assessed as animal survival upto 40 mg/kg, ip measured for 24 hrs; format: organism-based; conditions: in vivo
Staphylococcus aureus [7] = assay: Bactericidal activity against Staphylococcus aureus ATCC29213 assessed as log reduction in bacterial growth at 8 times MIC incubated for 24 hrs by time-kill assay; format: functional
Escherichia coli [8] = assay: Bactericidal activity against Escherichia coli ATCC25922 assessed as log reduction in bacterial growth at MIC incubated for 12 hrs by time-kill assay; format: functional
Escherichia coli [9] = assay: Bactericidal activity against Escherichia coli ATCC25922 at MIC incubated for 12 hrs by time-kill assay relative to control; format: functional
Staphylococcus aureus [10] = assay: Antibacterial activity against Staphylococcus aureus ATCC25923 upto 32 ug/ml incubated for 16 to 18 hrs in presence of phosphatidylethanolamine; format: functional, organism-based; conditions: dose <= 32.0 µg/ml, time 16-18 hrs
Staphylococcus aureus [11] = assay: Antibacterial activity against Staphylococcus aureus ATCC29213 infected in mouse model assessed as bacterial concentration at 5 mg/kg, sc measured after 24 hrs (reference value: 10^10.13 CFU/g); format: functional
[12] = Toxicity in KM mouse assessed as damage in spleen upto 40 mg/kg, ip measured for 24 hrs by H and E staining based analysis; format: organism-based; conditions: in vivo
Staphylococcus aureus [13] = assay: Antibacterial activity against methicillin-resistant Staphylococcus aureus 21-5 by CLSI based serial dilution method; format: functional
Staphylococcus aureus [14] = assay: Antibacterial activity against Staphylococcus aureus ATCC29213 infected in mouse model assessed as normalization of skin cell morphology at 5 to 10 mg/kg, sc measured after 24 hrs by H and E staining based analysis; format: functional, organism-based; conditions: dose 5-10 mg/kg
Pseudomonas aeruginosa [15] = assay: Anti-biofilm activity against Pseudomonas aeruginosa ATCC27853 assessed as biofilm formation rate at 8 times MIC incubated for 48 hrs by crystal violet staining based analysis relative to control; format: functional

For `CCCCCCCNC(=O)C[N+](C)(C)CCCCOc1cc(C)ccc1C(C)C.[Br-]`, the Activity (Escherichia coli [1]) was “Active”, the Activity [2] was “Non-Toxic” and the MIC (Pseudomonas aeruginosa [3]) was 8 µg/mL. The Activity [4] was “Non-Toxic”, the Activity (Staphylococcus aureus [5]) was 99.65% and the Activity [6] was “Non-Toxic”. For the same compound, the Activity (Staphylococcus aureus [7]) was >3 log10CFU/ml, the Activity (Escherichia coli [8]) was >4 log10CFU/ml and the Activity (Escherichia coli [9]) was 99.99%. The Activity (Staphylococcus aureus [10]) was “inactive”, the Activity (Staphylococcus aureus [11]) was ~1 10^7.99CFU/g and the Activity [12] was “Non-Toxic”. For the same compound, the MIC (Staphylococcus aureus [13]) was 4 µg/mL, the Activity (Staphylococcus aureus [14]) was “Active” and the Activity (Pseudomonas aeruginosa [15]) was 22.3%.
